The target of test [1] is T1, adiponectin receptor 1 (ADIPOR1) (Homo sapiens, UniProt Q96A54).
T1 construct: Flag tag (N); made in house; host or cells: SF9 insect cells (baculovirus, pFASTbac1)
T1 sequence (Q96A54 89-375): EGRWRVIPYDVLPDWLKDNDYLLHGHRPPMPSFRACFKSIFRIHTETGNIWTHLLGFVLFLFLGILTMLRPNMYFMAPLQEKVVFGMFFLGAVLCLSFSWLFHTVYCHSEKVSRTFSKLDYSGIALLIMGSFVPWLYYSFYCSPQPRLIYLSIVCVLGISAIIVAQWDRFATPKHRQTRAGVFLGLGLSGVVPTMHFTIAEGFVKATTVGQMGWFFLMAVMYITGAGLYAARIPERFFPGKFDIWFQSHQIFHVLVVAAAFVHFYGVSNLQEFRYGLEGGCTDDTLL
Kind of test: Surface plasmon resonance (SPR) binding of peptide to immobilized recombinant ADIPOR1. Particulars: ADIPOR1 amine-coupled to CM5 chip, running buffer pH 7.4, read-out: dissociation constant (Kd) from ADIPOR1. The text has this: The ADIPOR1 protein sequence used was the same as that used for the ADIPOR1 structure analysis, in which 88 amino acids at the N-terminal have been removed. The gene capable of producing the protein sequence was synthesized by codon optimization (IDT). At the time, a BamHI restriction enzyme site, a Flag tag and a TEV protease recognition sequence (ENLYFQG; SEQ ID NO: 11) were inserted at the 5′ end and an EcoRI restriction enzyme site was inserted at the 3′ end in order to facilitate cloning and purify the expressed protein. The obtained gene was inserted into the pFASTbac1 vector required for baculovirus production to perform cloning. The cloned vector was transfected into DH10 bac (Invitrogen) to obtain a bacmid comprising the ADIPOR1 gene through recombination. In order to produce baculovirus, the obtained bacmid was transfected into SF9 cells (5×10^4 cells) using Transfectine (Qiagen), and the baculovirus secreted in a medium was collected after 5 days. Then, a large amount of baculovirus was produced through amplification. The obtained baculovirus was inoculated into SF9 cells (5×10^6 cells/ml) cultured in a 1 L SFM900 medium, and protein was expressed at a temperature of 27° C. for 3 days. The SF9 cells expressing recombinant ADIPOR1 were obtained through centrifugation. The obtained cell pellets were aliquoted and stored at −80° C., and used in protein purification as needed to minimize the disadvantages of membrane proteins, which have the possibility of inactivation due to storage after purification. The ADIPOR1, which is a membrane protein expressed on a cell membrane, was solubilized using a detergent (1% DDM) for purification. The dissolved sample was reacted with anti-Flag antibody bead (Sigma) for 1 hour in ice. Then, ADIPOR1 bound to the anti-Flag antibody bead was eluted with Flag peptide. The primarily purified ADIPOR1 was subjected to size exclusion chromatography (Supderdex200, GE healthcare) to obtain only monomeric, proteins. […]
In order to analyze the binding force between peptide and ADIPOR1, a purified recombinant ADIPOR1 (A88) was bound to a CM5 chip with 3000 RU or higher through amine coupling. […] The affinity value was calculated using the affinity fitting or kinetics fitting method. […] The peptide concentrations were calculated by measuring the […] and A280 absorbance of each peptide.
With reference to FIGS. 3 and 4, surface plasmon resonance (SPR) experiments were performed in the present invention to measure the dissociation constant between the agonist peptide and the adiponectin receptor, particularly adiponectin receptor 1 (ADIPOR1). First, an expressed and purified adiponectin receptor ADIPOR1 was immobilized and its dissociation constant from candidate peptides was measured over a total of 4 rounds.
In general terms: SPR reads the build-up and loss of mass on a sensor chip optically.

Test [2] has as its system AMPK phosphorylation in C2C12 cell line. As to the kind of experiment: Western blotting of AMPK phosphorylation in differentiated C2C12 myotubes. Type of test: cell-based. As to conditions: 10 min treatment, tested at 20, 4 and 0.8 uM. The method, then: (§1) C2C12 and HepG2 cells were purchased from ATCC. Before use, they were cultured in a DMEM (Hyclone) medium supplemented with 10% FBS (Hyclone) and 1% penicillin/streptomycin in an incubator at 37° C. in a 5% CO2 environment.
C2C12 cells were plated in 12 wells. […] Then, the medium was replaced with a differentiation medium in which DMEM is supplemented with 2.5% horse serum and 1% penicillin/streptomycin. Thereafter, differentiation was performed for 5-7 days, replacing the medium with a new differentiation medium every day. The thus-obtained product was used for experiments.
Based on the prior finding, after optimization of the number of the cells to be used for experiment, HepG2 was starved for 5 hours, recovered, and treated with peptide for 30 minutes, and C2C12 was starved for 24 hours and treated with peptide for 10 minutes. The treated cell samples were washed once with cold PBS and lysed for 15 minutes with a RiPA buffer containing a protease inhibitor and a phosphatase inhibitor. After 15 minutes, centrifugation was carried out at 14000 rpm for 5 minutes to collect only proteins. After quantification, 4× sample buffer and 2-ME were added to prepare a sample for western blotting. The western blotting was performed using a conventional western blotting technique. […]

The subject of test [3] is AMPK phosphorylation in HepG2 cell line. Kind of test: Western blotting of AMPK phosphorylation in HepG2 cell line. Particulars: HepG2, 5 h starvation, 30 min treatment; tested at 20, 4 and 0.8 uM. It is filed as cell-based. The protocol: as §1
Based on the prior finding, after optimization of the number of the cells to be used for experiment, HepG2 was starved for 5 hours, recovered, and treated with peptide for 30 minutes, and C2C12 was starved for 24 hours and treated with peptide for 10 minutes. The treated cell samples were washed once with cold PBS and lysed for 15 minutes with a RiPA buffer containing a protease inhibitor and a phosphatase inhibitor. After 15 minutes, centrifugation was carried out at 14000 rpm for 5 minutes to collect only proteins. After quantification, 4× sample buffer and 2-ME were added to prepare a sample for western blotting. The western blotting was performed using a conventional western blotting technique. The antibodies of AMPK, p-AMPK, p-AKT, p-ACC and GAPDH were diluted to 1:1000 or 1:2000 depending on the type thereof and imaging was performed with a LAS-4000 instrument.
HepG2 cell line was plated on a 12-well plate at a concentration of 8*10^5 cells/well on the day before the experiment. […]

The target in test [4] is T2, adiponectin receptor ADIPOR1 (Homo sapiens, UniProt Q96A54).
T2 construct: Flag tag (N); made in house; host or cells: SF9 insect cells (baculovirus, pFASTbac1)
Kind of test: Kd (uM). The text has this: Table printed on a drawing sheet, FIG. 1
Head of the field: Kd (uM)
Where the first naming reader finds the target: description_of_the_figure: dissociation constant values of synthetic peptides (3 peptides from 3rd round, 4 peptides from 4th round) from the adiponectin receptor ADIPOR1

We go through six compounds from patent publication US10561705B2, “Agonist peptide for adiponectin receptor” (priority 2016, dated 2020).

Square brackets hold non-standard residues; d marks the D form. Peptide text beside a SMILES is read from it. Nva = CCC[C@H](N)C(=O)O A value given as a limit tells only on which side of the number the result lay.

T2 sequence (Q96A54 whole entry, looked up): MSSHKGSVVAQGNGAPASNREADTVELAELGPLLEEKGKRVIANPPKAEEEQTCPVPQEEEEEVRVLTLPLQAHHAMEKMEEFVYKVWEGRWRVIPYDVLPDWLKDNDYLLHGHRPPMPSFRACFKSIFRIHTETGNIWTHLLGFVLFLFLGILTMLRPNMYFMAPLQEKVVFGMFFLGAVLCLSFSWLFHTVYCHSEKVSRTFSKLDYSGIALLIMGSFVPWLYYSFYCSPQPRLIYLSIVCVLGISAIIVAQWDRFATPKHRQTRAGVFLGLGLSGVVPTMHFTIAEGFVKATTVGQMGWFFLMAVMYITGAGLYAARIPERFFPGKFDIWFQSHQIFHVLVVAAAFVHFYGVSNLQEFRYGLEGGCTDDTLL

For orientation: Kd means the constant that tells how readily two partners part at equilibrium. In the case of `CC[C@H](C)[C@H](NC(=O)[C@H](CC(N)=O)NC(=O)[C@@H]1CCCN1C(=O)[C@H](Cc1c[nH]cn1)NC(=O)[C@H](Cc1ccc(O)cc1)NC(=O)[C@H](C)NC(=O)[C@H](Cc1ccccc1)NC(=O)[C@H](Cc1ccc(O)cc1)NC(=O)[C@@H](N)Cc1c[nH]c2ccccc12)C(=O)N1CCC[C@H]1C(=O)NCC(=O)N[C@@H](CC(C)C)C(=O)N[C@@H](Cc1c[nH]c2ccccc12)C(=O)N[C@@H](Cc1ccc(O)cc1)C(=O)N[C@@H](Cc1ccccc1)C(=O)O` [peptide 4-3, Trp-Tyr-Phe-Ala-Tyr-His-Pro-Asn-Ile-Pro-Gly-Leu-Trp-Tyr-Phe] (H-WYFAYHPNIPGLWYF-OH), in test [1], the Kd was in the range of 6 to 10 µM.

As for `CC[C@H](C)[C@H](NC(=O)[C@H](CC(N)=O)NC(=O)[C@@H]1CCCN1C(=O)[C@H](Cc1c[nH]cn1)NC(=O)[C@H](Cc1ccc(O)cc1)NC(=O)[C@H](C)NC(=O)[C@H](Cc1ccccc1)NC(=O)[C@H](Cc1ccc(O)cc1)NC(=O)[C@@H](N)Cc1ccc(O)cc1)C(=O)N1CCC[C@H]1C(=O)NCC(=O)N[C@@H](CC(C)C)C(=O)N[C@@H](Cc1ccc(O)cc1)C(=O)N[C@@H](Cc1ccc(O)cc1)C(=O)N[C@@H](Cc1ccccc1)C(=O)O` [peptide 3-1, Tyr-Tyr-Phe-Ala-Tyr-His-Pro-Asn-Ile-Pro-Gly-Leu-Tyr-Tyr-Phe] (H-YYFAYHPNIPGLYYF-OH), the equilibrium dissociation constant (Kd) in test [1] is at most 16 µM.

As to `CCC[C@H](NC(=O)[C@@H]1CCCN1C(=O)[C@@H](NC(=O)[C@H](N)CC(N)=O)[C@@H](C)CC)C(=O)N[C@@H](CC(C)C)C(=O)N[C@@H](Cc1ccc(O)cc1)C(=O)N[C@H](CO)C(=O)N[C@@H](Cc1ccccc1)C(=O)N[C@@H](C)C(=O)N[C@H](CO)C(N)=O` [ADP355, H-DAsn-Ile-Pro-Nva-Leu-Tyr-DSer-Phe-Ala-DSer-NH2] (H-[dN]IP[Nva]LY[dS]FA[dS]-NH2), the “concentration from which AMPK was phosphorylated” value in test [2] stood at 4 µM; in test [3], 20 µM. The Kd in test [1] is at least 100 µM.

`CC[C@H](C)[C@H](NC(=O)[C@H](CC(N)=O)NC(=O)[C@@H]1CCCN1C(=O)[C@H](Cc1c[nH]cn1)NC(=O)[C@H](Cc1ccc(O)cc1)NC(=O)[C@H](C)NC(=O)[C@H](Cc1ccccc1)NC(=O)[C@H](CO)NC(=O)[C@@H](N)Cc1ccc(O)cc1)C(=O)N1CCC[C@H]1C(=O)NCC(=O)N[C@@H](CC(C)C)C(=O)N[C@@H](Cc1ccc(O)cc1)C(=O)N[C@@H](Cc1ccc(O)cc1)C(=O)N[C@@H](Cc1ccccc1)C(=O)O` [4-5, YSFAYHPNIPGLYYF (SEQ ID NO: 7)] (H-YSFAYHPNIPGLYYF-OH; N-terminus and C-terminus assumed) gave a Kd in test [4] of 24.5 µM.

`CC[C@H](C)[C@H](NC(=O)[C@H](CC(N)=O)NC(=O)[C@@H]1CCCN1C(=O)[C@H](Cc1c[nH]cn1)NC(=O)[C@H](Cc1ccc(O)cc1)NC(=O)[C@H](C)NC(=O)[C@H](Cc1ccccc1)NC(=O)[C@H](Cc1ccc(O)cc1)NC(=O)[C@@H](N)Cc1ccc(O)cc1)C(=O)N1CCC[C@H]1C(=O)NCC(=O)N[C@@H](CC(C)C)C(=O)N[C@@H](Cc1ccc(O)cc1)C(=O)N[C@@H](Cc1ccc(O)cc1)C(=O)N[C@@H](Cc1ccccc1)C(=O)O` [3-1, YYFAYHPNIPGLYYF (SEQ ID NO: 1 where Xaa1 and Xaa13 each is tyrosine)] (H-YYFAYHPNIPGLYYF-OH; N-terminus and C-terminus assumed) displayed a dissociation constant (Kd) in test [4] of 16 µM.

In the case of `CC[C@H](C)[C@H](NC(=O)[C@H](CC(N)=O)NC(=O)[C@@H]1CCCN1C(=O)[C@H](Cc1c[nH]cn1)NC(=O)[C@H](Cc1ccc(O)cc1)NC(=O)[C@H](C)NC(=O)[C@H](Cc1ccccc1)NC(=O)[C@H](Cc1ccc(O)cc1)NC(=O)[C@@H](N)Cc1ccccc1)C(=O)N1CCC[C@H]1C(=O)NCC(=O)N[C@@H](CC(C)C)C(=O)N[C@@H](Cc1ccccc1)C(=O)N[C@@H](Cc1ccc(O)cc1)C(=O)N[C@@H](Cc1ccccc1)C(=O)O` [peptide 4-4, Phe-Tyr-Phe-Ala-Tyr-His-Pro-Asn-Ile-Pro-Gly-Leu-Phe-Tyr-Phe] (H-FYFAYHPNIPGLFYF-OH), the Kd in test [1] fell in the range of 2 to 4.3 µM.
